Results taken from patent US6384048B1, “Imidazonaphthyridines” (Byk Gulden Lomberg Chemische Fabrik GmbH, priority 1998, dated 2002).

Tests used:
[1] = test system: pentagastrin-stimulated acid secretion of the perfused rat stomach; assay: Secretion-inhibiting action on the perfused rat stomach (pentagastrin-stimulated acid secretion, in vivo); settings: anesthetized CD rat, dose 3 μmol/kg i.v.
Source text: Testing of the Secretion-inhibiting Action on the Perfused Rat Stomach
In Table A which follows, the influence of the compounds according to the invention on the pentagastrin-stimulated acid secretion of the perfused rat stomach after intravenous administration in vivo is shown.
The abdomen of anesthetized rats (CD rat, female, 200-250 g; 1.5 g/kg i.m. urethane) was opened after tracheotomy by a median upper abdominal incision and a PVC catheter was fixed transorally in the esophagus and another via the pylorus such that the ends of the tube just projected into the gastric lumen. The catheter leading from the pylorus led outwards into the right abdominal wall through a side opening.
After thorough rinsing (about 50-100 ml), warm (37° C.) physiological NaCl solution was continuously passed through the stomach (0.5 ml/min, pH 6.8-6.9; Braun-Unita 1). The pH (pH meter 632, glass electrode EA 147; φ=5 mm, Metrohm) and, by titration with a freshly prepared 0.01 N NaOH solution to pH 7 (Dosimat 665 Metrohm), the secreted HCl were determined in the effluent in each case collected at an interval of 15 minutes.
The gastric secretion was stimulated by continuous infusion of […] (=1.65 ml/h) of i.v. pentagastrin (left femoral vein) about 30 min after the end of the operation (i.e. after determination of 2 preliminary fractions). […]

Structure (SMILES)	melting point [°C]	Inhibition of acid secretion [1] [%]
CSCCO[C@H]1c2ccn3c(C)c(C)nc3c2N[C@H](c2ccccc2)[C@H]1O [Example 2, (7S,8R,9R)-2,3-dimethyl-8-hydroxy-7-(2-methylthioethyloxy)9-phenyl-7,8,9,10-tetrahydroimidazo[1,2-h][1,7]naphthyridine]	109 to 110	
Cc1nc2c3c(ccn2c1C)[C@@H](OCC[S+](C)[O-])[C@H](O)[C@@H](c1ccccc1)N3 (stereo partly drawn) [Example 3, (7R,8R,9R)-2,3-dimethyl-8-hydroxy-7-(2-methylsulphinylethoxy)-9phenyl-7,8,9,10-tetrahydroimidazo[1,2-h][1,7]naphthyridine]	105 to 106	
CSCCO[C@@H]1c2ccn3c(C)c(C)nc3c2N[C@H](c2ccccc2)[C@H]1O [Example 1, (7R,8R,9R)-2,3-dimethyl-8-hydroxy-7-(2-methylthioethyloxy)-9-phenyl-7,8,9,10-tetrahydroimidazo[1,2-h][1,7]naphthyridine]	118 to 119	100

Continued, in another order:

melting point [°C]	Structure (SMILES)	Inhibition of acid secretion [1] [%]
220 to 223	CCS[C@@H]1c2ccn3c(C)c(C)nc3c2N[C@H](c2ccccc2)[C@H]1O [Example 5, (7R,8R,9R)-2,3dimethyl-8-hydroxy-7-(ethylthio)-9-phenyl-7,8,9,10-tetrahydro-imidazo[1,2-h][1,7]naphthyridine]	100
85 to 87	Cc1nc2c3c(ccn2c1C)[C@H](OCC[S+](C)[O-])[C@H](O)[C@@H](c1ccccc1)N3 (stereo partly drawn) [Example 4, (7S,8R,9R)-2,3-dimethyl-8-hydroxy-7-(2-methylsulphinylethoxy)-9-phenyl-7,8,9,10-tetrahydroimidazo[1,2-h][1,7]naphthyridine]	
235 to 236	CCS[C@H]1c2ccn3c(C)c(C)nc3c2N[C@H](c2ccccc2)[C@H]1O [Example 6, (7S,8R,9R)-2,3-dimethyl-8-hydroxy-7-(ethylthio)-9-phenyl-7,8,9,10-tetrahydro-imidazo[1,2-h][1,7]naphthyridine]	
